The test system of series [1] is RSV A clinical isolates and laboratory strains. Put plainly: Inhibition of RSV-A clinical isolates and laboratory strains, RT-qPCR, HeLa. Particulars: human respiratory syncytial virus, 10 strains, read-out: Median EC50. The format is cell-based. The procedure: (§1) Then, 100 µL of a HeLa cell suspension (5 × 10^4 cells/mL) in culture medium was added to each well. […] After 3 days of incubation, the supernatant was removed from wells. Plates were washed twice with ice-cold PBS (100 µL/well), and were then sealed and stored overnight at −80 °C. Next, 50 µL of lysis solution supplemented with DNAse was added to the plates and incubated for 5 min followed by the addition of 5 µL stop solution (Ambion Cell-to-CT bulk lysis reagent buffer). […] Roche) for cDNA synthesis. Reverse transcription was performed at 42 °C for 30 min, followed by denaturation at 95 °C for 5 min. […] The reaction consisted of a denaturation step (95 °C for 600 s), 45 cycles of denaturation (95 °C for 15 s) and annealing/elongation (60 °C for 60 s), and a step of cooling (40 °C for 10 s).
On the technique in general: Quantitative PCR measures a nucleic acid by following its amplification.

For series [2], the system named is RSV B clinical isolates and laboratory strains. Put plainly: Inhibition of RSV-B clinical isolates and laboratory strains, RT-qPCR, HeLa. The format is cell-based. The settings on record: human respiratory syncytial virus, 6 strains, read-out: Median EC50. The procedure: as §1
Series [3] is described as follows: Cell viability of replicon cell line (CellTiter-Glo). The settings on record: hamster, APC-126 cells (BHK-derived, stable RSV A2 replicon); APC-126, CellTiter-Glo. The format is cell-based. The method, then:
The RSV subgenomic replicon system was licensed from Apath (Apath, NY, USA)[49],[50]. The BHK-derived cell line (APC-126) containing the stable RSV A2 replicon was cultured in DMEM/Hams F-12 medium supplemented with 10% (v/v) FBS (Gibco), 1% (v/v) penicillin (10,000 units/mL) and streptomycin (10,000 µg/mL) solution (Gibco), 1% (v/v) MEM non-essential amino acids solution (Gibco), 5% (v/v) Tryptose Phosphate Broth solution (29.5 g/l) (Sigma-Aldrich) and 10 µg/ml of blasticidin solution (Invivogen). Cells were maintained at 37 °C in a humidified 5% CO2 atmosphere. 5000 cells were plated in 96-well clear plates (Corning) in 100 µl/well of medium. […] Cell viability (CC50 and CC90) was measured with a CellTiter-Glo cell proliferation assay (Promega, 100 µl/well of reagent). Results were expressed as EC50 and EC90 values as well as CC50 and CC90 values.
(In general: In antiviral work, replicon cells carry a viral genome segment that copies itself.)

The next series deals with RSV L+P RdRp (Human respiratory syncytial virus A, UniProt P28887). Put plainly: Biotinylated primer extension Flashplate assay, recombinant RSV L+P. The series is classed as biochemical, Human RSV (strain A2). The method, then: RNA polymerase reaction samples consisted of recombinant RSV L-P polymerase (3 nM) in a buffer containing Tris pH 7.5 (20 mM), KCl (10 mM), dithiothreitol (2 mM), Triton (0.01%), DMSO (10% v/v) with compound at appropriate dilution (10 points 1:5-fold serial dilution starting at 1 µM), and MgCl2 (6 mM). Reactions were started at 30 °C by adding an oligonucleotide template sequence derived from the RSV leader promoter (5’-[…]-3’, 0.2 μM) together with a biotinylated primer (5’-bi-ACGC, 4 μM) mixed with GTP (10 µM), ATP (10 µM) and [α-^33P]CTP (0.025 µM, 3000 Ci/mmol) in a final volume of 10 μL. Reactions were stopped after 120 min by the addition of 90 µl EDTA (0.1 M). Samples were transferred to Flashplates and left 1 h at room temperature for incubation before being washed twice with 0.1% Tween 20, sealed (Topseal) and read on a Wallac MicroBeta TriLux Liquid Scintillation Counter.
Sequence of RSV L+P RdRp (P03421 whole entry): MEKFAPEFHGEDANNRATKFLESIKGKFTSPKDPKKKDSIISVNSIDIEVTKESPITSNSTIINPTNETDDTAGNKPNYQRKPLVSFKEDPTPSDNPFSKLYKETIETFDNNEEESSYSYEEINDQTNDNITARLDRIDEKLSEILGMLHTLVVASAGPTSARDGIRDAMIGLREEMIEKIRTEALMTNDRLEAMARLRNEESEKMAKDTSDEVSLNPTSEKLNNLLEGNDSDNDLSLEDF
Sequence of RSV L+P RdRp (P28887 whole entry): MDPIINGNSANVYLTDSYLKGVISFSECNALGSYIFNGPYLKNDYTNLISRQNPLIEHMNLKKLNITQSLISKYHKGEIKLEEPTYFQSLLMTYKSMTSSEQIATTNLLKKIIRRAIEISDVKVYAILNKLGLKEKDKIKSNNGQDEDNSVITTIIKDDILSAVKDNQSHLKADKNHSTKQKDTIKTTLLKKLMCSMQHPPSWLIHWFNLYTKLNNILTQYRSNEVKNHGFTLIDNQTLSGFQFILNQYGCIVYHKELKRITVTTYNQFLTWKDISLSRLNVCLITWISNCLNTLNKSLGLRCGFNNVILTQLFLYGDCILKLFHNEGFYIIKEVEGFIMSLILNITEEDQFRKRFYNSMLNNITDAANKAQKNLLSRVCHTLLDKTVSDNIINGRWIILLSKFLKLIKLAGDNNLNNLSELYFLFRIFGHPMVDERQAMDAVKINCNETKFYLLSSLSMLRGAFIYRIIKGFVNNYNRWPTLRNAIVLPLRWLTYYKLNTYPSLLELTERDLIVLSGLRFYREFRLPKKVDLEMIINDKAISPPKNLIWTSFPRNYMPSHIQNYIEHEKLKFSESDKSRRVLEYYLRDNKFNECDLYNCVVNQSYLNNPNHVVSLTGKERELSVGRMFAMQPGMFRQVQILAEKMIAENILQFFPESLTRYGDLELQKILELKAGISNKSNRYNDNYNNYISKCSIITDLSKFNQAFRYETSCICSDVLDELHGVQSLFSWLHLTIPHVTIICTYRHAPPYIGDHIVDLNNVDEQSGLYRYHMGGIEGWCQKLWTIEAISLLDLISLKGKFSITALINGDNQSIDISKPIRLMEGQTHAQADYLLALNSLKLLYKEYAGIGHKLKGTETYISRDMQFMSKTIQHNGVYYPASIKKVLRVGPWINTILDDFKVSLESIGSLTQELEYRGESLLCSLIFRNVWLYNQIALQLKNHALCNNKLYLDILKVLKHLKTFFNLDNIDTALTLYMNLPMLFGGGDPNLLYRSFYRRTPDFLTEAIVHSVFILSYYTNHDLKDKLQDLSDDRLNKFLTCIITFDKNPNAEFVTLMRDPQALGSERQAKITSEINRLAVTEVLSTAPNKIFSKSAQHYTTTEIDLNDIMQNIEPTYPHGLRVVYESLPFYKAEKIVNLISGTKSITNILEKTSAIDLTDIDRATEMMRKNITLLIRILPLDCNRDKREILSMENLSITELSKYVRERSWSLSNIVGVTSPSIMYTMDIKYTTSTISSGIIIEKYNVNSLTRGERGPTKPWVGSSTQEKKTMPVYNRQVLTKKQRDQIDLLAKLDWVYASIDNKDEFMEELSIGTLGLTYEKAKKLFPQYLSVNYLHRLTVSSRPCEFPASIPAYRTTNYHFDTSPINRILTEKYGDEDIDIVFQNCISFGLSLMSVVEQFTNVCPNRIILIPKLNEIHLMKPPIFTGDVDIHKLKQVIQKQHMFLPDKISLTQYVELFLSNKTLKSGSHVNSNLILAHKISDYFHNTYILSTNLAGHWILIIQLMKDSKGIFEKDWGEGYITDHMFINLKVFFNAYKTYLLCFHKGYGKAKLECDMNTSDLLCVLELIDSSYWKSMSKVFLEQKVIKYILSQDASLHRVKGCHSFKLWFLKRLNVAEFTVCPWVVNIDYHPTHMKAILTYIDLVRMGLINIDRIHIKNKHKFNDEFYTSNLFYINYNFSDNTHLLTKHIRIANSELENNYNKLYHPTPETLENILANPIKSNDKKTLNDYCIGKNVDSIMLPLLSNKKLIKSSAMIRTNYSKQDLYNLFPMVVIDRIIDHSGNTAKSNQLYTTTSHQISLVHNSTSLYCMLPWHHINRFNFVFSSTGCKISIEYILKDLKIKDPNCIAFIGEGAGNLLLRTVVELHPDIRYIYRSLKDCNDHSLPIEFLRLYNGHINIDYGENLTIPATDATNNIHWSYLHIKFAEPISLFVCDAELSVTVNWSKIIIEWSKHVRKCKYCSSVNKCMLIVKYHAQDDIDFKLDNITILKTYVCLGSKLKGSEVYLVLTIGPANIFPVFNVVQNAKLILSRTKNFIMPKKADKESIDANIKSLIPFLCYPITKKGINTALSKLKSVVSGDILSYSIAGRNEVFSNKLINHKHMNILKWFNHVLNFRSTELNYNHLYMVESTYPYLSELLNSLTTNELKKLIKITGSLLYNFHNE

Another series addresses RSV MTase-CTD protein (Human respiratory syncytial virus A, UniProt P28887). Put plainly: Methyltransferase filter-binding assay. The format is biochemical. Particulars: for MTase activity, RNA+compound+RSV MTase-CTD, CPM: three technical replicates.
For a further series, the target named is RSV L+P complex (Human respiratory syncytial virus A, UniProt P28887). Briefly: Thermal shift assay (Prometheus NT.48). The series is classed as binding, Human RSV (strain A2). The settings on record: read-out: increase in melting temperature (Tm).
A further series in a line: in vitro. The settings on record: human.

“And” between values parts separate entries of the source, which are not always exact repeats. Identical values can stand only once. Like-named read-outs stand apart in the source and are kept apart here.

Sequence of RSV MTase-CTD protein (P28887 1755-2165): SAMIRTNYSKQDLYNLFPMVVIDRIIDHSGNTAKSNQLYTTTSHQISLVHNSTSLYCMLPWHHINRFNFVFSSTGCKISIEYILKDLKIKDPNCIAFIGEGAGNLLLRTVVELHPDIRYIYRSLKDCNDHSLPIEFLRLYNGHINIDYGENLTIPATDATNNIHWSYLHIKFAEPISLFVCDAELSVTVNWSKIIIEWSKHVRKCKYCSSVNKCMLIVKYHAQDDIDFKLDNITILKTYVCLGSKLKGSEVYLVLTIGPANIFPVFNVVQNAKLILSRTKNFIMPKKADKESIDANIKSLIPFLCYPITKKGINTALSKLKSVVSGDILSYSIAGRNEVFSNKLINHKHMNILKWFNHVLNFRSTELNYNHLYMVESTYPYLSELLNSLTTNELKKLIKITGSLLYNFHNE

On to `COc1cc(C(=O)NC[C@](O)(c2cc(C(C)(C)O)c(F)c(-c3ccc(F)cc3)n2)C(F)(F)F)cc2cc(C)nnc12` [JNJ-8003], for which the results for the EC50 in series [1] and in series [2] were 0.18 nM and 0.1 nM, respectively. The CC50 at 3 days in series [3] turned out to be 11000 nM. The IC50 at RSV L+P RdRp (RSV L+P RdRp primer extension, n 18, read-out: Median IC50) amounted to 0.73 nM; on RSV L+P RdRp (RdRp activity, Flashplate (Fig. 1c), read-out: IC50), 0.67 nM. The inhibition at 0.00032 µM at RSV L+P RdRp ([JNJ-8003] 0.00032 uM, replicates 1-4) stood at 28.6%. Further, the “% inhibition” value on RSV L+P RdRp ([JNJ-8003] 0.00032 uM, replicates 1-4, 0.00032 µM) is 26.2934% and 27.7635% and 40.6870%; at RSV L+P RdRp ([JNJ-8003] 0.0016 uM, replicates 1-4, 0.0016 µM), 60.6805% and 64.1654% and 73.5323%; at RSV L+P RdRp ([JNJ-8003] 0.008 uM, replicates 1-4, 0.008 µM) it was 89.6905% and 92.3440% and 94.9354%; on RSV L+P RdRp ([JNJ-8003] 0.04 uM, replicates 1-4, 0.04 µM), 96.5839% and 97.2066% and 98.2976%; on RSV L+P RdRp ([JNJ-8003] 0.2 uM, replicates 1-4, 0.2 µM) it was 96.5743% and 98.0014% and 97.9026%. On RSV L+P RdRp ([JNJ-8003] 0.0016 uM, replicates 1-4), the inhibition at 0.0016 µM is 55.8%. In addition, the inhibition at 0.008 µM at RSV L+P RdRp ([JNJ-8003] 0.008 uM, replicates 1-4) worked out at 81.4%. Further, the inhibition at 0.04 µM on RSV L+P RdRp ([JNJ-8003] 0.04 uM, replicates 1-4) was found to be 93%. Moreover, at RSV L+P RdRp ([JNJ-8003] 0.2 uM, replicates 1-4), the inhibition at 0.2 µM was found to be 95.2%. Also, the “MTase activity, RNA+compound+RSV MTase-CTD, CPM” value on RSV MTase-CTD protein (50 uM) was 32508 CPM and 30594 CPM and 30169 CPM; at RSV MTase-CTD protein (200 uM), 26082 CPM and 22767 CPM and 27924 CPM. The “impact on MTase activity (in words)” value on RSV MTase-CTD protein (recombinant MTase-CTD fragment) is “no impact”. On RSV L+P complex, the ΔTm at 25 µM stood at 6 °C. The compound also yielded a CC50 in “in vitro” of more than 25000 nM.

Broadly, the EC50 is the concentration giving half of the maximal effect. For orientation: IC50 means the concentration that inhibits the measured activity by half. In general, inhibition refers to how much of the control response was suppressed. The % inhibition is the drop in the measured response relative to a control, in per cent.

The record behind these values is PMC10590419, “Structural and mechanistic insights into the inhibition of respiratory syncytial virus polymerase by a non-nucleoside inhibitor” (Communications Biology, 2023).
